In patent US6414150B1, “4,5-disubstituted imidazole compounds” (SmithKline Beecham Corporation, priority 1996, dated 2002):

Test system: human PGHS-2 protein expression in LPS stimulated human monocytes
Assay: Prostaglandin Endoperoxide Synthase-2 (PGHS-2) assay
Format: cell-based
Settings: LPS 50 ng/well overnight, Western blot
Procedure: The following assay describes a method for determining the inhibitory effects of compounds of Formula (I) on human PGHS-2 protein expression in LPS stimulated human monocytes.
Method: Human peripheral blood monocytes were isolated from buffy coats by centrifugation through Ficoll and Percoll gradients. Cells were seeded at 2×10^6/well in 24 well plates and allowed to adhere for 1 hour in RPMI supplemented with 1% human AB serum, 20 mM L-glutamine, Penicillin-Streptomycin and 10 mM HEPES. Compounds were added at various concentrations and incubated at 37° C. for 10 minutes. LPS was added at 50 ng/well (to induce enzyme expression) and incubated overnight at 37° C. The supernatant was removed and cells washed once in cold PBS. The cells were lysed in […] of cold lysis buffer(50 mM Tris/HCl pH 7.5, 150 mM NaCl, 1% NP40, 0.5% sodium deoxycholate, 0.1% SDS, 300 ug/ml DNAse, 0.1% TRITON X-100, 1 mM PMSF, 1 mM leupeptin, 1 mM pepstatin). The lysate was centrifuged (10,000×g for 10 min. at 4° C.) to remove debris and the soluble fraction was subjected to SDS PAGE. analysis (12% gel). Protein separated on the gel were transferred onto nitrocellulose membrane by electrophoretic means for 2 hours at 60 volts. The membrane was pretreated for one hour in PBS/0.1% Tween 20 with 5% non-fat dry milk. After washing 3 times in PBS/Tween buffer, the membrane was incubated with a 1:2000 dilution of a monospecific antiserum to PGHS-2 or a 1:1000 dilution of an antiserum to PGHs-1 in PBS/Tween with 1% BSA for one hour with continuous shaking. The membrane was washed 3× in PBS/Tween and then incubated with a 1:3000 dilution of horseradish peroxidase conjugated donkey antiserum to rabbit Ig (Amersham) in PBS/Tween with 1% BSA for one hour with continuous shaking. The membrane was then washed 3× in PBS/Tween and the ECL immunodetection system (Amersham) was used to detect the level of expression of prostaglandin endoperoxide synthases-2.

SMILES | inhibition of LPS induced PGHS-2 protein expression
Fc1ccc(-c2nc3n(c2-c2ccncc2)CCS3)cc1 [6-(4-Fluoro-phenyl)-2,3-dihydro-5-(4-pyridinyl)imidazo[2,1-b]thiazole] | active
C[C@@H]1C[C@H]2[C@@H]3CCC4=CC(=O)C=C[C@]4(C)[C@@]3(F)[C@@H](O)C[C@]2(C)[C@@]1(O)C(=O)CO [Dexamethasone] | active

Same assay, conditions: tested up to 10 uM

SMILES | inhibition of LPS induced PGHS-2 protein expression
C[S+]([O-])c1ccc(-c2nc3n(c2-c2ccncc2)CCC3)cc1 (stereo not drawn) [2-(4-Methylsulfinylphenyl)-3-(4-pyridyl)-6,7-dihydro-(5H)-pyrrolo[1,2-a]imidazole] | inactive
CC(Cc1ccc(O)c(O)c1)C(C)Cc1ccc(O)c(O)c1 (stereo not drawn) [NDGA] | inactive
O=C1CCN(c2ccccc2)N1 [phenidone] | inactive
COc1ccc(C2CNC(=O)C2)cc1OC1CCCC1 (stereo not drawn) [rolipram] | inactive
